# Test results published in patent publication US8575338B2, “Pyrimidine, pyridine and triazine derivatives as maxi-K channel openers” (Mitsubishi Tanabe Pharma Corporation, priority 2008, dated 2013).
# Target: T1, human BKαβ1 channels (Homo sapiens, UniProt Q12791)
# T1 construct: expressed in transfected cells; host or cells: CHO cells (G418 and hygromycin selection)
# Experiment: BK current in CHO cells expressing human BKαβ1 (PatchXpress whole-cell patch clamp), EC100
# Type: cell-based
# Settings: drug concentration causing 100% increase of BK current
# Description: Methods for Testing Compounds on Human BKαβ1 Channels Expressed Cho Cells
# CHO cells expressing human BKαβ1 were cultured in T75 or 6 well cell culture cluster. Medium: DMEM/F12+10% FBS+0.5 mg/mL G418/genetecin+0.1 mg/mL Hygromycin. Split cells every 3-4 days at 80-90% confluence. Use cells for experiments 60-72 hrs after re-passage and at ˜90% confluence.
# Trypsin solution (0.05% Trypsin+0.1% EDTA), Ca^2+ free PBS and culture medium were warmed to 37° C. Inspect the T75 flask for cell confluence. Remove culture medium and add warm Ca^2+ free PBS to wash cells. Remove Ca^2+ free PBS and add warm Trypsin solution. Put the T75 flask back to 37° C. incubator for about 4.5 minutes. Stop Trypsin activity by adding culture medium. Spin the cells down. Suspend cells in 120-160 μL external solution for BK current recording and use the cells as soon as possible.
# PatchXpress Sealchip 16 electrodes (AVIVA Biosciences) and PatchXpress 7000A (Axon Instruments, Inc) were used for BK current recording. Flat bottom 1.5 mL glass vial (HiPep Laboratories) were used for containing external solutions (±compounds). The holes in the sealchip (equivalent to patch electrode) had resistance about 1.5 MΩ. Cell membrane capacitance was compensated and access resistance was also compensated by 40%. Voltage-clamp protocol: Holding voltage=0 mV. Record BK current during 200-ms steps between +80 to +120 mV in 10 mV increments and 2 sec inter-pulse interval. On-line digital leak subtraction was performed by a P/−4 procedure. After whole-cell configuration was established, 2 minute was used to optimize access resistance. Then the chamber was washed with control bath solution for 1 minute to remove excessive cells. Control bath solution was added with robotic pipette and control BK current was recorded after 1 minute equilibrium time. For each drug concentration, 45 μL drug solution was added three times with “suction before adding” mode which left old solution. For each drug addition, 1 minute equilibrium time was given. BK current was measured at each drug concentrations (usually within 3.5 minutes after first drug addition). Calculate % change of BK current at the voltage step when the control BK current first exceeding 200 pA. If the control BK current was less than 200 pA at 120 mV, the cell was not used. % changes were calculated as 100*(Id−Ic)/Ic, where Id was the current amplitude in the presence of drug and Ic was the control current amplitude.
# EC100 was defined as the drug concentration causing 100% increase of BK current calculated by the method described above. EC100 was determined by the data points just below and above 100%. % Increase of BK current was plotted against log [drug concentration]. A straight line connected two data points flanking 100%. From this straight line, the concentration corresponding to 100% increase of BK current was determined as EC100.
# Compounds were dissolved in DMSO to make 10 mM stock solutions. Subsequent dilutions were made with external solution. The testing drug concentrations were 0.1, 0.3, 1, 3 and 10 μM depending on the potency of compounds. The highest DMSO concentration was 0.1%. External solution (in mM): 140 NaCl, 4 KCl, 1 MgCl2, 2 CaCl2, 10 Glucose, 10 HEPES; pH=7.4 with NaOH. Internal solution (in mM): 140 KCl, 5 EGTA, 1 MgCl2, 5 MgATP, 0.2 CaCl2, 5 HEPES; pH=7.2 with KOH.
# T1 sequence (Q12791 whole entry): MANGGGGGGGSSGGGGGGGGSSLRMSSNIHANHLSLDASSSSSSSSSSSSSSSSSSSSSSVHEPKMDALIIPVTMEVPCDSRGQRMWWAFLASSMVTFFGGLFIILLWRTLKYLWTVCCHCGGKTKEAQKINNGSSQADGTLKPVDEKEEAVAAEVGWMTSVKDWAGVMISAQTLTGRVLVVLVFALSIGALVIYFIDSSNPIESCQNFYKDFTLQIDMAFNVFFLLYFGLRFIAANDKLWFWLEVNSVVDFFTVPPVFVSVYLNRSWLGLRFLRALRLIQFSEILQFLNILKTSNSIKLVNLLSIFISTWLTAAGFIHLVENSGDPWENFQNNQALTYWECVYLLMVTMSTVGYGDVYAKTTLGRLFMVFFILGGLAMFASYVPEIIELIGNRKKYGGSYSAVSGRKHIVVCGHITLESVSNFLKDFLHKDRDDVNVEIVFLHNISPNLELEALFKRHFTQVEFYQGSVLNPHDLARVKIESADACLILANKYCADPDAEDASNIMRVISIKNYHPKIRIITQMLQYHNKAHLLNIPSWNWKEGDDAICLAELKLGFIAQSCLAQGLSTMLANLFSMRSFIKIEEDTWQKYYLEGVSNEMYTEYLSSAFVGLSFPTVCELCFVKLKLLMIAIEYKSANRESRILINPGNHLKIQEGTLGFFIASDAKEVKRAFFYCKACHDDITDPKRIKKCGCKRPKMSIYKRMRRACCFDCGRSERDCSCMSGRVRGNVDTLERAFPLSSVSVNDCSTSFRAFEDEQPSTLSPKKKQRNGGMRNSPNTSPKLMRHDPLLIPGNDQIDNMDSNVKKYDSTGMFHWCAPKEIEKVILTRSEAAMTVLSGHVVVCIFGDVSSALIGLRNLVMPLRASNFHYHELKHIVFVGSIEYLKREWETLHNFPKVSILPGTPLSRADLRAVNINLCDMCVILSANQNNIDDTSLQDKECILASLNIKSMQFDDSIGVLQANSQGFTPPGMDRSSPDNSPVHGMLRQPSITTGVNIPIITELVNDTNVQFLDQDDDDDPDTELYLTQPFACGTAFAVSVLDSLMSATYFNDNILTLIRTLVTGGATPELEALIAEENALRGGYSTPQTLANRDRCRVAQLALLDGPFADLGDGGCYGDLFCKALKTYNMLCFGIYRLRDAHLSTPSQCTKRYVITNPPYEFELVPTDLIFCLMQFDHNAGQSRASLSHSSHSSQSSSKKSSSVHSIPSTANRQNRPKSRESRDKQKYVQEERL
# T1 sequence (Q16558 whole entry partner): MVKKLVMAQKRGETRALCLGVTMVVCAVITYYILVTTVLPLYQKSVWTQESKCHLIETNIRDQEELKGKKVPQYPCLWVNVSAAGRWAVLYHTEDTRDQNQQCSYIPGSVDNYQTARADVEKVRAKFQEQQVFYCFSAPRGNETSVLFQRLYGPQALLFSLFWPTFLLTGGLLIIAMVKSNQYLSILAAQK
row,SMILES,EC100 [µM]
1,O=C([O-])C1(Oc2cc(-c3ccccc3O)nc(-c3ccc(Cl)c(F)c3)n2)CC1.[Na+] [Example 552],0.2
2,CC(C)Oc1cc(F)ccc1-c1cc(OC2(C(=O)O)CC2)nc(-c2ccc(F)cc2)n1 [Example 710],0.14
3,CCCOC1CCN(c2nc(-c3ccc(Cl)cc3)nc(OC3(C(=O)O)CC3)c2C)CC1 [Example 1114],0.41
4,O=C([O-])C1(Oc2cc(-c3ccc4c(c3)OCCO4)nc(-c3ccc(Cl)c(F)c3)n2)CC1.[Na+] [Example 529],0.12
5,CCOC1CCN(c2cc(OC3(C(=O)[O-])CC3)nc(-c3ccc(Cl)c(F)c3)n2)C1.[Na+] (stereo not shown) [Example 51],1.09
6,COCC1CCN(c2nc(OC3(C(=O)O)CC3)cc(-c3cc(Cl)c(Cl)s3)n2)CC1 [Example 1217],0.19
7,Cc1cc(-c2nc(-c3ccc(F)cc3)nc(OC3(C(=O)[O-])CC3)c2C)ccc1F.[Na+] [Example 999],0.14
8,CCOCC1CCN(c2nc(-c3ccc(Cl)cc3)nc(OC3(C(=O)O)CC3)c2C)CC1 [Example 1116],1.31
9,COc1ccc(-c2cc(OC3(C(=O)[O-])CC3)nc(-c3ccc(Cl)c(F)c3)n2)cc1F.[Na+] [Example 518],0.1
10,CCOc1ncccc1-c1cc(OC2(C(=O)[O-])CC2)nc(-c2ccc(Cl)c(F)c2)n1.[Na+] [Example 533],0.5
11,COC[C@@H]1CCCN1c1cc(OC2(C(=O)[O-])CC2)nc(-c2cccc(C(F)(F)F)c2)n1.[Na+] [Example 62],1.5
12,N#Cc1cc(Cl)ccc1-c1cc(OC2(C(=O)O)CC2)nc(-c2ccc(Cl)cc2)n1 [Example 918],0.2
13,CCOCc1ccc(-c2cc(OC3(C(=O)O)CC3)nc(-c3ccc(Cl)cc3)n2)c(C)c1 [Example 1034],0.17
14,COc1ccc(-c2nc(-c3ccc(Cl)cc3)nc(OC3(C(=O)O)CC3)c2C)cc1 [Example 1016],0.5
15,Cc1cc(OC(F)(F)F)ccc1-c1nc(OC2(C(=O)[O-])CC2)nc(-c2ccc(Cl)cc2)n1.[Na+] [Example 1094],0.03
16,CCCOC1CCN(c2nc(-c3ccc(Cl)cc3)nc(OC3(C(=O)[O-])CC3)c2F)CC1.[Na+] [Example 1129],0.61
17,O=C([O-])C1(Oc2cc(-c3ccc(Cl)s3)nc(N3CCc4ccc(F)cc4C3)n2)CC1.[Na+] [Example 1202],0.2
18,O=C([O-])C1(Oc2cc(NC3CCCC3)nc(-c3ccc(Cl)c(F)c3)n2)CC1.[Na+] [Example 47],0.33
19,O=C([O-])C1(Oc2cc(N3CCc4ccc(Cl)cc4C3)nc(-c3ccc(F)cc3)n2)CC1.[Na+] [Example 1111],0.12
20,COC[C@H]1CCCN1c1cc(OC2(C(=O)[O-])CC2)nc(-c2ccc(Cl)c(F)c2)n1.[Na+] [Example 37],0.69
21,CCCCOC1CCN(c2nc(-c3ccc(Cl)cc3)nc(OC3(C(=O)[O-])CC3)c2C)CC1.[Na+] [Example 1119],0.73
22,COc1cc(F)ccc1-c1cc(OC2(C(=O)[O-])CC2)nc(-c2ccc(F)c(F)c2)n1.[Na+] [Example 208],0.38
23,O=C([O-])C1(Oc2cc(-c3nccs3)nc(-c3ccc(Cl)c(F)c3)n2)CCCC1.[Na+] [Example 570],2.15
24,COc1ccc(Cl)c(-c2cc(OC3(C(=O)O)CC3)nc(-c3ccc(F)cc3)n2)c1 [Example 900],0.36
25,O=C([O-])C1(Oc2cc(N3CCc4ccc(F)cc4C3)nc(-c3ccc(Cl)cc3)n2)CC1.[Na+] [Example 1095],0.3
26,CCCOC1CCN(c2nc(OC3(C(=O)O)CC3)cc(-c3ccc(C)c(Cl)c3)n2)CC1 [Example 1148],0.13
27,Cc1cc(F)cc(-c2nc(-c3ccc(F)cc3)nc(OC3(C(=O)[O-])CC3)c2C)c1.[Na+] [Example 1000],0.14
28,CCOc1cccc(-c2nc(OC3(C(=O)[O-])CC3)cc(N3CCC[C@H]3COC)n2)c1.[Na+] [Example 65],1.43

row,SMILES,EC100 [µM]
1,O=C([O-])C1(Oc2cc(-c3cccc(C(F)(F)F)c3)nc(-c3ccc(Cl)c(F)c3)n2)CC1.[Na+] [Example 555],0.3
2,COc1ccc(C(C)=O)cc1-c1cc(OC2(C(=O)[O-])CC2)nc(-c2ccc(Cl)c(F)c2)n1.[Na+] [Example 199],1.14
3,COc1cc(-c2cc(OC3(C(=O)[O-])CC3)nc(-c3ccc(Cl)c(F)c3)n2)ccc1F.[Na+] [Example 522],0.39
4,CN(Cc1cccc(F)c1)c1cc(OC2(C(=O)[O-])CC2)nc(-c2ccc(F)cc2)n1.[Na+] [Example 1098],0.11
5,COCCC1CCN(c2nc(-c3ccc(F)cc3)nc(OC3(C(=O)O)CC3)c2C)CC1 [Example 1123],0.95
6,Cc1ccc(C(F)(F)F)cc1-c1nc(OC2(C(=O)[O-])CC2)nc(-c2ccc(Cl)cc2)n1.[Na+] [Example 1093],0.04
7,O=C([O-])C1(Oc2cc(-c3cncc(Cl)c3)nc(-c3ccc(Cl)c(F)c3)n2)CC1.[Na+] [Example 563],0.01
8,COCCC1CCN(c2nc(-c3ccc(Cl)cc3)nc(OC3(C(=O)[O-])CC3)c2F)CC1.[Na+] [Example 1132],0.41
9,CCCCOC1CCN(c2nc(-c3ccc(F)cc3)nc(OC3(C(=O)[O-])CC3)c2C)CC1.[Na+] [Example 1125],0.5
10,CCOCC1CCN(c2nc(OC3(C(=O)[O-])CC3)cc(-c3ccc(Cl)s3)n2)CC1.[Na+] [Example 1197],0.15
11,CCOc1ccc(-c2cc(OC3(C(=O)O)CC3)nc(-c3ccc(F)cc3)n2)c(C)c1 [Example 897],0.62
12,COc1ccc(F)c(-c2cc(OC3(C(=O)[O-])CCOCC3)nc(-c3ccc(Cl)c(F)c3)n2)c1.[Na+] [Example 572],1.07
13,CC(C)(Oc1cc(-c2ccc(F)cc2)nc(-c2ccc(Cl)c(F)c2)n1)C(=O)[O-].[Na+] [Example 474],0.36
14,O=C(O)C1(Oc2cc(OCc3ccc(F)cc3)nc(-c3ccc(Cl)cc3)n2)CC1 [Example 1281],0.12
15,COc1cccc(-c2cc(OC(C)(C)C(=O)[O-])nc(-c3ccc(Cl)c(F)c3)c2)c1.[Na+] [Example 206],0.68
16,COC[C@@H]1CCCN1c1cc(OC2(C(=O)[O-])CC2)nc(-c2ccc(C(F)(F)F)cc2)n1.[Na+] [Example 63],1.28
17,CC(C)(Oc1cc(N2CCC(C(C)(C)O)CC2)nc(-c2ccc(Cl)c(F)c2)n1)C(=O)[O-].[Na+] [Example 16],1.91
18,CCc1ccc(F)cc1-c1cc(OC2(C(=O)O)CC2)nc(-c2ccc(F)cc2)n1 [Example 892],0.55
19,Cc1c(OC2(C(=O)O)CC2)nc(-c2ccc(Cl)cc2)nc1-c1ccc(F)cc1 [Example 1015],0.34
20,COc1cc(F)cc(-c2cc(OC3(C(=O)[O-])CC3)nc(-c3ccc(Cl)c(F)c3)n2)c1.[Na+] [Example 519],0.12
21,N#Cc1ccc(-c2cc(OC3(C(=O)[O-])CC3)nc(-c3ccc(Cl)c(F)c3)n2)cc1.[Na+] [Example 549],0.33
22,COc1nc(-c2cc(OC(C)(C)C(=O)[O-])nc(-c3ccc(Cl)c(F)c3)n2)cs1.[Na+] [Example 506],1.38
23,COCC1CCN(c2nc(-c3ccc(Cl)cc3)nc(OC3(C(=O)O)CC3)c2C)CC1 [Example 1115],1.74
24,COCCOc1cc(F)ccc1-c1cc(OC2(C(=O)[O-])CC2)nc(-c2ccc(Cl)c(F)c2)n1.[Na+] [Example 209],0.27
25,Cc1cc(C(F)(F)F)ccc1-c1nc(OC2(C(=O)O)CC2)nc(-c2ccc(Cl)cc2)n1 [Example 1092],0.02
26,O=C([O-])C1(Oc2cc(N3CCN(c4ncccn4)CC3)nc(-c3ccc(Cl)c(F)c3)n2)CC1.[Na+] [Example 664],1.29
27,O=C(O)C1(Nc2cc(-c3ccc(F)cc3)nc(-c3ccc(Cl)c(F)c3)n2)CC1 [Example 706],0.16
